Test results published in ChEMBL document CHEMBL5579888, “A Comparative Study on the DNA Interactions and Biological Activities of Benzophenanthridine and Protoberberine Alkaloids” (J Nat Prod, 2024).
Active and inactive are the calls of the source. The calls are words filed in the database; no cut-off is given here.

How the values were obtained:
[1] = system: Quadruplex DNA; assay: Binding affinity to human G4-quadruplex 22AG DNA 5'- AGGGTTAGGGTTAGGGTTAGGG -3' assessed as change in fluorescence intensity at 1 uM incubated for 0.5 hrs by fluorescence spectra analysis; format: nucleic-acid assay
[2] = molecular target: Quadruplex DNA; assay: Binding affinity to human G4-quadruplex 22AG DNA 5'- AGGGTTAGGGTTAGGGTTAGGG -3' assessed as change in fluorescence intensity at 1 uM incubated for 0.5 hrs in presence of different concentrations of DNA by fluorescence spectra analysis; format: nucleic-acid assay
[3] = molecular target: Quadruplex DNA; assay: Binding affinity to human G4-quadruplex c-kit2 DNA 5'- CGGGCGGGCGCGAGGGAGGGT-3' assessed as change in fluorescence intensity at 1 uM incubated for 0.5 hrs in presence of different concentrations of DNA by fluorescence spectra analysis; format: nucleic-acid assay
[4] = system: dsDNA; assay: Binding affinity to double stranded DNA AT15 (unknown origin) incubated for 0.5 hrs in presence of different concentration DNA by fluorescence spectra analysis; format: nucleic-acid assay
[5] = system: A-375; assay: Induction of apoptosis in human A-375 cells assessed assessed as necrotic cells at 5 uM incubated for 24 hrs by Annexin V-Elab Fluor 647/propidium iodide staining based flow cytometry (reference value: 1.45 %); format: functional
[6] = system: LoVo; assay: Antiproliferative activity against human LoVo cells assessed as reduction in cell viability incubated for 48 hrs by CCK-8 assay; format: functional, cell-based
[7] = system: A-375; assay: Induction of DNA damage in human A-375 cells assessed as appearance of long DNA tails at 5 uM incubated for 24 hrs by comet assay; format: functional, cell-based
[8] = system: A2780/Taxol; assay: Antiproliferative activity against human A2780T cells assessed as reduction in cell viability incubated for 48 hrs by CCK-8 assay; format: functional, cell-based
[9] = system: A549/TR; assay: Antiproliferative activity against human A549/Taxol cells assessed as reduction in cell viability incubated for 48 hrs by CCK-8 assay; format: functional, cell-based
[10] = molecular target: Quadruplex DNA; assay: Displacement of ThT from human G4-quadruplex KRAS DNA 5'- AGGGCGGTGTGGGAAGAGGGAAGAGGGGGAGG-3' incubated for 0.5 hrs by SpectraMax M2 microplate reader analysis; format: nucleic-acid assay
[11] = system: A-375; assay: Inhibition of RNA synthesis in human A-375 cells at 5 uM incubated for 24 hrs by EU incorporation based flow cytometry analysis; format: functional, cell-based
[12] = system: A-375; assay: Inhibition of DNA synthesis in human A-375 cells at 5 uM incubated for 24 hrs by Edu incorporation based flow cytometry analysis; format: functional, cell-based
[13] = system: Quadruplex DNA; assay: Binding affinity to human G4-quadruplex Pu27 DNA 5'- TGGGGAGGGTGGGGAGGGTGGGGAAGG-3' assessed as change in fluorescence intensity at 1 uM incubated for 0.5 hrs by fluorescence spectra analysis; format: nucleic-acid assay
[14] = molecular target: dsDNA; assay: Binding affinity to double stranded DNA AT12 (unknown origin) incubated for 0.5 hrs in presence of different concentration DNA by fluorescence spectra analysis; format: nucleic-acid assay
[15] = system: PC-3; assay: Antiproliferative activity against human PC-3 cells assessed as reduction in cell viability incubated for 24 hrs by CCK-8 assay; format: functional, cell-based; conditions: PC-3, 24 h
[16] = molecular target: dsDNA; assay: Binding affinity to double stranded DNA AT15-4AT (unknown origin) incubated for 0.5 hrs in presence of different concentration DNA by fluorescence spectra analysis; format: nucleic-acid assay
[17] = system: Calf thymus DNA; assay: Displacement of Hoechst 33342 from calf thymus DNA incubated for 0.5 hrs by SpectraMax M2 microplate reader analysis; format: nucleic-acid assay, Bos taurus
[18] = system: Quadruplex DNA; assay: Binding affinity to human G4-quadruplex VEGF DNA 5'- GGGCGGGCCGGGGGCGGG-3' assessed as change in fluorescence intensity at 1 uM incubated for 0.5 hrs by fluorescence spectra analysis; format: nucleic-acid assay
[19] = molecular target: Quadruplex DNA; assay: Displacement of ThT from human G4-quadruplex 22AG DNA 5'- AGGGTTAGGGTTAGGGTTAGGG -3' incubated for 0.5 hrs by SpectraMax M2 microplate reader analysis; format: nucleic-acid assay
[20] = system: A-375; assay: Induction of apoptosis in human A-375 cells assessed assessed as late apoptotic cells at 5 uM incubated for 24 hrs by Annexin V-Elab Fluor 647/propidium iodide staining based flow cytometry (reference value: 6.31 %); format: functional
[21] = molecular target: dsDNA; assay: Binding affinity to double stranded DNA ssab3 (unknown origin) incubated for 0.5 hrs in presence of different concentration DNA by fluorescence spectra analysis; format: nucleic-acid assay
[22] = molecular target: dsDNA; assay: Binding affinity to double stranded DNA ssab2 (unknown origin) incubated for 0.5 hrs in presence of different concentration DNA by fluorescence spectra analysis; format: nucleic-acid assay
[23] = system: dsDNA; assay: Binding affinity to double stranded DNA ssab (unknown origin) at 20 uM by UV-Visible absorption spectroscopic analysis; format: nucleic-acid assay
[24] = system: A-375; assay: Induction of cell cycle arrest in human A-375 cells assessed assessed as cell accumulation at S phase at 5 uM incubated for 24 hrs by propidium iodide staining based flow cytometry (reference value: 30.05 %); format: functional
[25] = molecular target: Quadruplex DNA; assay: Displacement of ThT from human G4-quadruplex VEGF DNA 5'- GGGCGGGCCGGGGGCGGG-3' incubated for 0.5 hrs by SpectraMax M2 microplate reader analysis; format: nucleic-acid assay
[26] = system: A-375; assay: Induction of apoptosis in human A-375 cells assessed assessed as viable cells at 5 uM incubated for 24 hrs by Annexin V-Elab Fluor 647/propidium iodide staining based flow cytometry (reference value: 91.1 %); format: functional; conditions: read-out: Activity
[27] = system: A-375; assay: Induction of apoptosis in human A-375 cells assessed assessed as early apoptotic cells at 5 uM incubated for 24 hrs by Annexin V-Elab Fluor 647/propidium iodide staining based flow cytometry (reference value: 1.14 %); format: functional
[28] = molecular target: Quadruplex DNA; assay: Binding affinity to human G4-quadruplex Oxy28 DNA 5'- GGGGTTTTGGGGTTTTGGGGTTTTGGGG -3' assessed as change in fluorescence intensity at 1 uM incubated for 0.5 hrs in presence of different concentrations of DNA by fluorescence spectra analysis; format: nucleic-acid assay
[29] = molecular target: dsDNA; assay: Displacement of Hoechst 33342 from double stranded DNA ssab (unknown origin) incubated for 0.5 hrs by SpectraMax M2 microplate reader analysis; format: nucleic-acid assay

Row | SMILES | Activity [1] | Activity [5] [%] | Activity [7] | DC50 [10] [nM] | inhibition [11] | inhibition [12] | Activity [13] | EC50 [14] [nM] | EC50 [16] [nM] | DC50 [17] [nM] | Activity [18] | DC50 [19] [nM] | Activity [20] [%] | EC50 [21] [nM] | EC50 [22] [nM] | Activity [23] | Activity [24] [%] | DC50 [25] [nM] | viability at 5 µM [26] [%] | Activity [27] [%] | also measured
1 | COc1ccc2cc3[n+](cc2c1OC)CCc1cc2c(cc1-3)OCO2 [BERBERINE] | Active | 56.1 | inactive | 2640 | inactive | inactive | Active | 130 | 230 | 30700 | Active | 23500 | 7.26 | 230 | 100 | inactive | 28.42 | 580 | 35.4 | 1.28 | Kd [2]: 15600 nM; Kd [3]: 4220 nM; Activity [4]: inactive; IC50 [6]: ≥ 24300 nM; IC50 [8]: ≥ 24300 nM; IC50 [9]: ≥ 24300 nM; IC50 [15]: ≥ 24300 nM; Kd [28]: 1670 nM; DC50 [29]: 22100 nM
2 | C[n+]1cc2c3c(ccc2c2ccc4cc5c(cc4c21)OCO5)OCO3 [SANGUINARIUM] | Active | 29.3 | Active | 580 | Active | Active | Active | 4150 | 770 | 5870 | Active | 2760 | 49.5 | 1480 | 1630 | Active | 31.29 | 140 | 20.4 | 0.84 | Activity [2]: inactive; Activity [3]: inactive; EC50 [4]: 610 nM; Activity [28]: inactive; DC50 [29]: 3210 nM
3 | COc1ccc2c(c[n+](C)c3c4cc5c(cc4ccc23)OCO5)c1OC [CHELERYTHRINE] | Active | 6.96 | Active | 850 | Active | Active | Active | 2110 | 1150 | 6700 | Active | 3040 | 35.2 | 1290 | 1060 | Active | 33.02 | 410 | 56 | 1.84 | Activity [2]: inactive; Activity [3]: inactive; EC50 [4]: 1130 nM; Activity [28]: inactive; DC50 [29]: 3490 nM
4 | c1c2c(cc3c1OCO3)-c1cc3ccc4c(c3c[n+]1CC2)OCO4 [COPTISINE] | Active | 84.6 | inactive | 380 | inactive | inactive | Active | 18500 | 5570 | 31400 | Active | 1970 | 15.3 | 5840 | 7250 | inactive | 28.21 | 120 | 0.022 | 0 | Kd [2]: 5930 nM; Kd [3]: 2590 nM; EC50 [4]: 1690 nM; IC50 [6]: ≥ 24300 nM; IC50 [8]: ≥ 24300 nM; IC50 [9]: ≥ 24300 nM; IC50 [15]: ≥ 24300 nM; Kd [28]: 980 nM; DC50 [29]: 23000 nM
